From US11459338B2, “Heterocyclic compounds as PRMT5 inhibitors” (JUBILANT EPISCRIBE LLC, priority 2018, dated 2022)
Where two headings read alike, the source gives them in different places.

Experiments:
[1] = target: T1, PRMT5/MEP50 (Homo sapiens, UniProt O14744); experiment: PRMT5/MEP50 enzyme assay on peptide substrates (3H-SAM Flashplate); type: biochemical; details: PRMT5/MEP50 10 nM, H4 1-15aa peptide 100 nM, 3H-SAM 1 μM
T1 construct: Full-length human PRMT5 (NP_006100)

[2] = system: Z-138 cells; experiment: Z-138 long term proliferation assay (Cell Titer Glo); type: cell-based; details: Homo sapiens; for GI50: 192 h, Z-138 cells, cell viability, day 8, read-out: PRMT5 Z138 GI50 Day 8 μM; for IC50: Z-138, 192 h, summary of Table 1, read-out: IC50 value (all the three assays): Z138 GI50 Day 8
Method in brief: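 Z-138 cells exposed to ten-point 3-fold dilutions (top 10 μM, 0.3% DMSO) for 96 h at 37° C., 5% CO2, then re-dosed for four more days.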

[3] = system: Symmetric di-methyl arginine in Z-138 cells; experiment: Z-138 methylation assay, ELISA for detection of symmetric di-methyl arginine; type: cell-based; details: Homo sapiens
[4] = Z-138, 96 h, summary of Table 1, read-out: IC50 value (all the three assays): Z138 SDMA ELISA Day 4
[5] = Z-138 cells, 96 h (day 4), read-out: PRMT5 Z138 SDMA ELISA Day 4 μM

T1 sequence (O14744 whole entry): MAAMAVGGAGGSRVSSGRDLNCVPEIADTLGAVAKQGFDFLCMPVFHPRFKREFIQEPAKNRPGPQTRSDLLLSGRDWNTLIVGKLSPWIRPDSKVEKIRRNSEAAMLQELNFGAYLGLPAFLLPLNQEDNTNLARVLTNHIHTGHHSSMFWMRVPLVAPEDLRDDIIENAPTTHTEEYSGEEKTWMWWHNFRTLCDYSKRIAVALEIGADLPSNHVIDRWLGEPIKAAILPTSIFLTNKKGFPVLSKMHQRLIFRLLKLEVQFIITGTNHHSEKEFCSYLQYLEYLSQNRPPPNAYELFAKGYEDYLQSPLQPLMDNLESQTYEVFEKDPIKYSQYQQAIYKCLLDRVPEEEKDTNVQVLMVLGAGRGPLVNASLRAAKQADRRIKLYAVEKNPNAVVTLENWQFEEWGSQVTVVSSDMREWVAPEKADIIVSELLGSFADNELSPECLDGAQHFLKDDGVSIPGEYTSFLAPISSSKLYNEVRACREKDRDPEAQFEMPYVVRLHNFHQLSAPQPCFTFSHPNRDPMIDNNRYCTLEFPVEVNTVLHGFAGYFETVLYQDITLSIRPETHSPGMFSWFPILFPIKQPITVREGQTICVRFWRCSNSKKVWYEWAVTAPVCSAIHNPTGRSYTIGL
T1 sequence (Q9BQA1 whole entry partner): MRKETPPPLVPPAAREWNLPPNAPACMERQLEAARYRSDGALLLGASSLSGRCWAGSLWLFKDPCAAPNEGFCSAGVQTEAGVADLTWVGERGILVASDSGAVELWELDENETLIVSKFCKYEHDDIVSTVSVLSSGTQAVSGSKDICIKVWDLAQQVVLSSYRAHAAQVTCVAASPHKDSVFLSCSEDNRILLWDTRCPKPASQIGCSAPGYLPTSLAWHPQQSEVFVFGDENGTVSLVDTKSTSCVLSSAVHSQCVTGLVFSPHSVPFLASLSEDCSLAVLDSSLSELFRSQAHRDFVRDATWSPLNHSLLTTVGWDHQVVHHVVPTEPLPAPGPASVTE

Compound	IC50 [1]	IC50 [3, 4]	IC50 [3, 5]	GI50 [2]	IC50 [2]
CC(=O)N1CC(n2cc(-c3ccc4nc(C(=O)NC[C@H](O)CN5CCc6ccccc6C5)cn4c3)cn2)C1 [Example 23, (S)-6-(1-(1-acetylazetidin-3-yl)-1H-pyrazol-4-yl)-N-(3-(3,4-dihydroisoquinolin-2(1H)-yl)-2-hydroxypropyl)imidazo[1,2-a]pyridine-2-carboxamide]	0.01 to 1 µM	0.01 to 1 µM	0.01 to 1 µM	0.01 to 1 µM	0.01 to 1 µM
O=C(NCC(O)CN1CCc2ccccc2C1)c1cn2cc(-c3ccc(F)cc3)ccc2n1 (centres unmarked) [Example 11, N-(3-(3,4-dihydroisoquinolin-2(1H)-yl)-2-hydroxypropyl)-6-(4-fluorophenyl) imidazo[1,2-a]pyridine-2-carboxamide]	0.01 to 1 µM	0.01 to 1 µM	0.01 to 1 µM	0.01 to 1 µM	0.01 to 1 µM
O=C(NC(CO)CCN1CCc2ccccc2C1)c1cn2cc(C(F)(F)F)ccc2n1 (centres unmarked) [Example 100, N-(4-(3,4-dihydroisoquinolin-2(1H)-yl)-1-hydroxybutan-2-yl)-6-(trifluoromethyl)imidazo[1,2-a]pyridine-2-carboxamide]	1 to 5 µM		0.01 to 1 µM	1 to 5 µM	
CCn1cc(-c2ccc3nc(C(=O)NC[C@H](O)CN4CCc5ccccc5C4)cn3c2)cn1 [Example 4, (S)—N-(3-(3,4-dihydroisoquinolin-2(1H)-yl)-2-hydroxypropyl)-6-(1-ethyl-1H-pyrazol-4-yl)imidazo [1,2-a]pyridine-2-carboxamide]	0.01 to 1 µM	0.01 to 1 µM	0.01 to 1 µM	0.01 to 1 µM	0.01 to 1 µM

The next lines start with results.

IC50 [1]	IC50 [3, 4]	IC50 [3, 5]	Compound	GI50 [2]	IC50 [2]
1 to 5 µM		0.01 to 1 µM	O=C(NC[C@H](O)CN1CCc2ccccc2C1)c1cn2c(n1)CCC(C(F)(F)F)C2 (stereo partly drawn) [Example 114, N—((S)-3-(3,4-dihydroisoquinolin-2(1H)-yl)-2-hydroxypropyl)-6-(trifluoromethyl)-5,6,7,8-tetrahydroimidazo[1,2-a]pyridine-2-carboxamide]	0.01 to 1 µM	
1 to 5 µM		0.01 to 1 µM	O=C(NC[C@H](O)CN1CCc2ccccc2C1)c1cn2c(n1)CC[C@H](C(F)(F)F)C2 [Example 121B, (S)—N—((S)-3-(3,4-dihydroisoquinolin-2(1H)-yl)-2-hydroxypropyl)-6-(trifluoromethyl)-5,6,7,8-tetrahydroimidazo[1,2-a]pyridine-2-carboxamide]	0.01 to 1 µM	
0.01 to 1 µM	0.01 to 1 µM	0.01 to 1 µM	O=C(NC[C@H](O)CN1CCc2ccccc2C1)c1cn2cc(C(F)(F)F)ccc2n1 [Example 8, (S)—N-(3-(3,4-dihydroisoquinolin-2(1H)-yl)-2-hydroxypropyl)-6(trifluoromethyl) imidazo[1,2-a]pyridine-2-carboxamide]	0.01 to 1 µM	0.01 to 1 µM
